# Results taken from patent publication US5236918A, “6-aryl-3-cyanaminopyridazines, their preparation and use and medicaments containing them” (BYK Gulden Lomberg Chemische Fabrik GmbH, priority 1989, dated 1993).
# pEC50: −log10 of the molar value.
# Columns and labels:
# [1] = test system: acetylcholine-induced bronchospasm; test: protective action against acetylcholine-induced bronchospasm on the conscious guinea-pig; format: in vivo; conditions: Cavia porcellus, 0.5 h; verum, oral, 100 μmol/kg, 30 minutes after administration; protected = latency period at least three times; read-out: Number of animals protected/number of animals used (converted)
# Procedure: The bronchospasmolytic action was additionally tested on the model of "Protective action against acetylcholine-induced bronchospasm on the conscious guinea-pig":
# Guinea-pigs (250-350 g) are exposed in a closed Plexiglas cylinder (volume 5 l) to an acetylcholine mist (0.06% in 0.9% sodium chloride solution; ultrasonic mister Heyer Use 77) twice before administration of the substance at an interval of 20 minutes, and 30 minutes after administration of the substance. The time from the start of misting to the onset of clear respiratory exertion (under certain circumstances hypoxic convulsions in the lateral position) is measured and defined as the latency period. A prolonging of the latency period after administration of the substance to at least three times the average latency period before administration of the substance is regarded as a protective action, and the number of protected animals in the group is stated. The test substances are administered orally by means of a stomach tube (dose 100 μmol/kg, volume 1 ml/kg, suspending agent 4% Methocel suspension in 0.9% sodium chloride solution).
# The test substance is administered perorally by means of a stomach tube (standard dose 100 μmol, volume 1 ml 4% Methocel suspension in 0.9% sodium chloride solution/kg). After 30 minutes, the animals are exposed to the acetylcholine mist again and the latency periods are measured. Prolonging of the latency period to at least three times the length is regarded as a protective action.
# [2] = test system: histamine-induced bronchospasm; test: histamine-induced bronchospasm on the anaesthetized guinea-pig; format: in vivo
# Procedure: The bronchospasmolytic action was furthermore determined on the model of "histamine-induced bronchospasm on the anaesthetized guinea-pig":
# In this model, pharmacodynamic and toxic effects on internal sensitive receptors, on the respiration and on the cardiovascular system of guinea-pigs are recorded simultaneously [U. Kilian, E. Muller, E. Ch.
# A histamine spasm before administration of the substance was compared with several histamine spasms after administration of the substance. The test substances were administered intravenously (i.v.) and/or intrajejunally (i.j.).
# [3] = test system: PDE IV; test: inhibition of PDE IV from the canine trachea; format: biochemical; conditions: for -log[IC50] PDE IV canine trachea: cAMP 0.5 μmol/l, 37° C., 20 minutes; for [IC50]theophylline / [IC50]substance: PDE IV canine trachea, quotient of IC50 values, theophylline = 1
# Text: (§1) The inhibition of phosphodiesterases of classes III (PDE III=high-affinity cAMP-PDE which can be inhibited by cGMP) and IV (PDE IV=high-affinity cAMP-PDE which cannot be inhibited by cGMP, Rolipram-sensitive) is regarded as being particularly conclusive for a bronchospasmolytic and/or antiinflammatory action which may be expected [H. Hidaka et al., Adv. Cycl. Nucl. Res. 13, 145 (1984); Tips 5, 237 (1984); R. Weishaar et al., J. Med. Chem. 28, 537 (1985); S. A. Harrison et al., Molec. Pharmac. 29, 506 (1986); J. Klein-Tebbe et al., Allergologie 12, 12 (1989); C. Schudt et al., Allergologie 12, 12 (1989)].
# (§2) The PDE inhibition of the compounds according to the invention was therefore determined on a PDE III isolated from human platelets and PDE IV isolated from human neutrophilic polymorphonuclear cells (PMNs) and from the canine trachea. The phosphodiesterases III and IV are isolated by chromatography by the method of Polson et al., Biochem. Pharmacol. 31, 3403-3406 (1982).
# (§3) The substances are dissolved in DMSO and diluted further. From a series of solutions diluted up to a hundred-fold, 2.1 μl portions are taken and 212 μl reaction mixture are added. The reaction mixture contains Hepes (100 mmol/l), DTE (5 mmol/l), MgCl2 (5 mmol/l), CaCl2 (10 μmol/l), BSA fraction V 0.5 mg/ml, cAMP 0.5 μmol/l, 2,8-^3 H-cAMP 250,000 cpm/ml (0.3 μCi/ml, s.a. 33.5 μCi/mmol) and SV (snake venom) (25 μg/212 μl test batch).
# (§4) The reaction is started by addition of 10 μl PDE to the reaction mixture and to the substance batch. The mixtures are then incubated at 37° C. for 20 minutes. The reaction is stopped by heating at 95° C. for 45 seconds. After the samples have cooled, the SV solution is added, the 5-AMP formed being cleaved. After incubation for 30 minutes at 37° C., this reaction is stopped by addition of 1 ml anion exchanger suspension. The cAMP which remains is thereby bonded. The adenosine formed remains in the supernatant after centrifugation and can be measured in an aliquot by the radioactivity contained therein.
# [4] = test system: trachea (tracheal ring chain of the guinea-pig); test: trachea-relaxing action: relaxation of contractions generated by histamine, carbachol, prostaglandin, ovalbumin and leukotriene; format: cell-based; conditions: Cavia porcellus; read-out: trachea-relaxing action, contraction by OA (converted)
# Procedure: (§5) The bronchospasmolytic action of the compounds on the tracheal ring chain of the guinea-pig was tested in vitro as follows: Four parallel tracheal ring chains, each consisting of 6 individual rings, of the guinea-pig (female and male, 430-600 g), in an organ bath [5 ml, Krebs-Henseleit solution with addition of phentolamine (10^-5 mol/l), 37° C., pretension of the organs 2 g, gassing with carbogen] develop a stable, tonic spontaneous contraction after about 20 to 30 minutes. Relaxation can be brought about on these permanently contracted organs under isometric measurement conditions by application of the test substance in a cumulatively semi-logarithmically increasing concentration (e.g. 1×10^-6 +2×10^-6 +7×10^-6 +2×10^-5etc. mol/l), a constant relaxation response being awaited after each individual dose of the test substance before the next higher concentration is applied. A complete dose/effect curve of the test substance is thus obtained over a period of 20 to 30 minutes. The particular relaxation is expressed as the percentage fraction of the maximum relaxation which can be achieved by addition of (-)isoprenaline (10^-6 mol/l). The concentration of the test substance which causes 50% of the maximum relaxation which can be achieved serves as a measure of the bronchodilatory activity, expressed by the negative logarithm of the EC50 mol/l: -log[EC50 ].
# The trachea-relaxing action of compounds 3 and 4 was additionally tested by relaxation of the contractions generated by histamine (His), carbachol (CC), prostaglandin (PGF2alpha), ovalbumin (OA) and leukotriene (LTC4).
# [5] = test system: PDE IV; test: inhibition of PDE IV from human neutrophilic polymorphonuclear cells (PMNs); format: biochemical; conditions: for -log[IC50] PDE IV PNMs: human neutrophilic polymorphonuclear cells, cAMP 0.5 μmol/l, 37° C., 20 minutes; for [IC50]theophylline / [IC50]substance: PDE IV human PMNs, quotient of IC50 values, theophylline = 1
# Text: as §1, §2, §3, §4
# [6] = test system: tracheal ring chain of the guinea-pig; test: bronchospasmolytic action on the tracheal ring chain of the guinea-pig in vitro (relaxation of stable tonic spontaneous contraction); format: cell-based; conditions: for pEC50: Cavia porcellus, EC50 in mol/l, 50% of the maximum relaxation achievable with (-)isoprenaline 10^-6 mol/l, spontaneous contraction, 37° C.; for [EC50]theophylline / [EC50]substance: quotient of EC50 values, theophylline = 1
# Procedure: as §5, with “mol/l).” for “mol/l). The concentration of the test substance which causes 50% of the maximum relaxation which can be achieved serves as a measure of the bronchodilatory activity, expressed by the negative logarithm of the EC50 mol/l: -log[EC50 ].”
# [7] = target: T1, PDE III (Homo sapiens, UniProt Q14432); test: inhibition of PDE III isolated from human platelets; format: biochemical; conditions: for [IC50]theophylline / [IC50]substance: PDE III, quotient of IC50 values, theophylline = 1; for IC50: human platelets, cAMP 0.5 μmol/l, 37° C., 20 minutes, read-out: -log[IC50] PDE III (converted)
# T1 construct: PDE III isolated from human platelets; from tissue; host or cells: human platelets
# Text: as §1, §2, §3, §4
# [8] = i.j. (intrajejunal), 20 μmol/kg
# [9] = i.j. (intrajejunal), 60 μmol/kg
# T1 sequence (Q14432 whole entry): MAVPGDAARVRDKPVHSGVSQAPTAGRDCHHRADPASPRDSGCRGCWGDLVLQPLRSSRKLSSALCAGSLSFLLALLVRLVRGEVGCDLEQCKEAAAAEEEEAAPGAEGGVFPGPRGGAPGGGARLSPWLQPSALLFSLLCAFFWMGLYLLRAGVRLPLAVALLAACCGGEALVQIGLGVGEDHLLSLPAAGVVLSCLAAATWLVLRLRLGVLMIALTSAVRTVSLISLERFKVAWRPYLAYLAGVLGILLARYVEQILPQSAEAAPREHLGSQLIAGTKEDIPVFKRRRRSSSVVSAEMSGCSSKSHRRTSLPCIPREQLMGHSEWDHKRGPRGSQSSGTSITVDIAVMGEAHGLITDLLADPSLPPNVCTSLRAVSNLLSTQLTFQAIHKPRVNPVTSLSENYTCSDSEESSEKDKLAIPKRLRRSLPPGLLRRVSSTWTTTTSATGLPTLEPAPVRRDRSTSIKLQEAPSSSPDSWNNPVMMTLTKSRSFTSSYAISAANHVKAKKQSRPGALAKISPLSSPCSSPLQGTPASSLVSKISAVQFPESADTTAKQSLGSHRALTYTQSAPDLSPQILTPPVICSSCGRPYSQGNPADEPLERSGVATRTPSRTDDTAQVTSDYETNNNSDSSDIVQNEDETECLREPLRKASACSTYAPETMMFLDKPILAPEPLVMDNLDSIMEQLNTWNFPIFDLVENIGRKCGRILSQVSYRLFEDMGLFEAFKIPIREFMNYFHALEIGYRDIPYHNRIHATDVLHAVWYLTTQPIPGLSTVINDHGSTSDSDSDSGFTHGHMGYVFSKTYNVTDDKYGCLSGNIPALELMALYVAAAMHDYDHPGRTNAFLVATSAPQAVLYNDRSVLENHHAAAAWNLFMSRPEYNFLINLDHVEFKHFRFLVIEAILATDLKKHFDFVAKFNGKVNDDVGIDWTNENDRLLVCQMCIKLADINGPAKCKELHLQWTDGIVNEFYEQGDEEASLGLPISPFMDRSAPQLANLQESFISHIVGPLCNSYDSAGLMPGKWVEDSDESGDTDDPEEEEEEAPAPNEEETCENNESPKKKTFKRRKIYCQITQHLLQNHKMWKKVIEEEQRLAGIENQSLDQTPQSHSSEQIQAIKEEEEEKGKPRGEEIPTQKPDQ
SMILES,responders at 100 µmol/kg [1] [%],"Average percentage bronchospasmolytic action 0-1 h p. appl., % inhibition of the histamine-induced decrease in Vmaxe [2, 8] [%]","Average percentage bronchospasmolytic action 0-1 h p. appl., % inhibition of the histamine-induced decrease in Vmaxe [2, 9] [%]","Average percentage bronchospasmolytic action 0-1 h p. appl., % inhibition of the histamine-induced decrease in Vmaxe ([2]; i.j. (intrajejunal), 100 μmol/kg) [%]","Average percentage bronchospasmolytic action 0-1 h p. appl., % inhibition of the histamine-induced decrease in Vmaxe ([2]; i.v., 20 μmol/kg) [%]","Average percentage bronchospasmolytic action 0-1 h p. appl., % inhibition of the histamine-induced decrease in Vmaxe ([2]; i.v., 60 μmol/kg) [%]","Average percentage bronchospasmolytic action 0-1 h p. appl., % inhibition of the histamine-induced decrease in Vmaxe ([2]; i.v., 100 μmol/kg) [%]",-log[IC50] PDE IV canine trachea [3],EC50 [4] [nM],-log[IC50] PDE IV PNMs [5],pEC50 [6],[EC50]theophylline / [EC50]substance [6],[IC50]theophylline / [IC50]substance [5],[IC50]theophylline / [IC50]substance [7],IC50 [7] [nM],[IC50]theophylline / [IC50]substance [3]
"Cn1c(=O)c2[nH]cnc2n(C)c1=O [Theophylline, theophylline, reference compound]",30,11,37,45,13,25,34,3.81,288000,3.76,–,–,–,–,–,–
"CCOc1ccc(-c2ccc(NC#N)nn2)cc1OCC(C)C [Compound 13, 3-Cyanamino-6-[4-ethoxy-3-(2-methylpropoxy)phenyl]pyridazine]",65,–,–,–,28,–,–,–,–,6.18,6.27,251,263,–,–,–
"COc1ccc(-c2ccc(NC#N)nn2)cc1OCC(C)C [Compound 4, 3-Cyanamino-6-[4-methoxy-3-(2-methylpropoxy)phenyl]pyridazine]",85,39,60,–,37,87,–,6.36,398,6.33,6.95,1203,357,26.9,6030,355
"CCOc1cc(-c2ccc(NC#N)nn2)ccc1OC(F)F [Compound 12, 3-Cyanamino-6-(4-difluoromethoxy-3-ethoxyphenyl)pyridazine]",70,–,–,–,50,–,–,5.80,–,–,5.61,55.0,–,–,–,97.8
"COc1ccc(-c2ccc(NC#N)nn2)cc1OC(C)C [Compound 3, 3-Cyanamino-6-[4-methoxy-3-(1-methylethoxy)phenyl]pyridazine]",70,29,65,–,28,65,–,5.75,646,5.82,6.38,324,117,30.8,5250,82.2
